# Source: ChEMBL document CHEMBL4190163 (2016)
# Active and inactive are the calls of the source. The calls are words filed in the database; no cut-off is given here.
# Assays:
# [1] = system: JIMT-1; assay: Cytotoxicity against human JIMT1 cells after 48 hrs by MTS assay; assay type: functional; details: JIMT-1, 48 h
# [2] = system: MDA-MB-231; assay: Cytotoxicity against human MDA-MB-231 cells after 48 hrs by MTS assay; assay type: functional; details: MDA-MB-231, 48 h
# [3] = system: DU-145; assay: Cytotoxicity against human DU145 cells after 48 hrs by MTS assay; assay type: functional; details: DU-145, 48 h
# [4] = system: MIA PaCa-2; assay: Cytotoxicity against human MIAPaCa2 cells after 48 hrs by MTS assay; assay type: functional; details: MIA PaCa-2, 48 h
# [5] = system: BT-474; assay: Cytotoxicity against human BT474 cells after 48 hrs by MTS assay; assay type: functional; details: BT-474, 48 h
# [6] = system: PC-3; assay: Cytotoxicity against human PC3 cells after 48 hrs by MTS assay; assay type: functional; details: PC-3, 48 h
# [7] = system: BT-474; assay: Disruption of preformed spheroids in human BT474 cancer stem cells at 20 uM after 3 days by microscopic analysis; assay type: functional, cell-based
# [8] = system: DU-145; assay: Cytotoxicity against human DU145 cancer stem cell spheroids assessed as reduction in cell viability up to 20 uM after 3 to 5 days by MTS assay; assay type: functional, cell-based
# [9] = system: DU-145; assay: Disruption of preformed spheroids in human DU145 cancer stem cells at 20 uM after 3 days by microscopic analysis; assay type: functional, cell-based
# [10] = system: BT-474; assay: Cytotoxicity against human BT474 cancer stem cell spheroids assessed as reduction in cell viability up to 20 uM after 3 to 5 days by MTS assay; assay type: functional, cell-based
# [11] = system: BT-474; assay: Disruption of preformed spheroids in human BT474 cancer stem cells at 5 to 10 uM after 4 days by microscopic analysis; assay type: functional
# [12] = system: BT-474; assay: Cytotoxicity against human BT474 cancer stem cell spheroids assessed as reduction in cell viability at 5 to 10 uM after 5 to 6 days by MTS assay; assay type: functional
# [13] = system: DU-145; assay: Cytotoxicity against human DU145 cancer stem cell spheroids assessed as reduction in cell viability at 5 to 10 uM after 5 to 6 days by MTS assay; assay type: functional
# [14] = system: DU-145; assay: Disruption of preformed spheroids in human DU145 cancer stem cells at 5 to 10 uM after 4 days by microscopic analysis; assay type: functional
# [15] = system: DU-145; assay: Cytotoxicity against human DU145 cancer stem cell spheroids assessed as reduction in cell viability at 5 uM after 5 to 6 days by MTS assay; assay type: functional
# [16] = system: BT-474; assay: Cytotoxicity against human BT474 cancer stem cell spheroids assessed as reduction in cell viability at 5 uM after 5 to 6 days by MTS assay; assay type: functional
# [17] = system: BT-474; assay: Disruption of preformed spheroids in human BT474 cancer stem cells at 7.5 uM after 3 days by microscopic analysis; assay type: functional, cell-based
# [18] = system: DU-145; assay: Disruption of preformed spheroids in human DU145 cancer stem cells at 7.5 uM after 3 days by microscopic analysis; assay type: functional, cell-based
# [19] = system: MIA PaCa-2; assay: Potency index, ratio of salinomycin CC50 to test compound CC50 for human MIAPaCa2 cells; assay type: functional
# [20] = system: DU-145; assay: Potency index, ratio of salinomycin CC50 to test compound CC50 for human DU145 cells; assay type: functional
# [21] = system: MDA-MB-231; assay: Potency index, ratio of salinomycin CC50 to test compound CC50 for human MDA-MB-231 cells; assay type: functional
# [22] = system: BT-474; assay: Potency index, ratio of salinomycin CC50 to test compound CC50 for human BT474 cells; assay type: functional
smiles,measurement,setting,value
CCCCCCCCCCCCCCCCOC[C@H](CN=[N+]=[N-])O[C@@H]1O[C@H](CO)[C@@H](O)[C@H](O)[C@H]1N,CC50,[1],9.5 µM
same,CC90,[1],13.5 µM
same,CC50,[2],11 µM
same,CC90,[2],15 µM
same,CC50,[3],12.5 µM
same,CC90,[3],18 µM
same,CC50,[4],11.5 µM
same,CC90,[4],18.5 µM
same,CC50,[5],22 µM
same,CC90,[5],28 µM
same,CC50,[6],6 µM
same,CC90,[6],15 µM
CCCCCCCCCCCCCCCCOC[C@@H](CO[C@@H]1O[C@H](CN)[C@@H](O)[C@H](O)[C@H]1N1C(=O)c2ccccc2C1=O)OC,CC50,[2],20 µM
same,CC50,[3],> 30 µM
same,CC50,[6],15 µM
CCCCCCCCCCCCCCN,Activity,[7],inactive
same,Activity,[8],inactive
same,Activity,[9],inactive
same,Activity,[10],inactive
O=C(O)CCCc1ccc(N(CCCl)CCCl)cc1 [CHLORAMBUCIL],CC50,[2],> 150 µM
CCCCCCCCCCCCCCCCOC[C@@H](CO[C@@H]1O[C@H](CN)[C@@H](O)[C@H](O)[C@H]1N)OC,CC50,[1],4.2 µM
same,CC90,[1],6.5 µM
same,Activity,[11],100%
same,Activity,[12],100%
same,CC50,[2],5.5 µM
same,CC90,[2],7 µM
same,CC50,[3],6 µM
same,CC90,[3],8.5 µM
same,CC50,[4],7 µM
same,CC90,[4],12 µM
same,CC50,[5],11.5 µM
same,CC90,[5],14 µM
same,CC50,[6],11 µM
same,CC90,[6],14 µM
same,Activity,[13],100%
same,Activity,[14],100%
CCCCCCCCCCCCCCCCOC[C@@H](CO[C@@H]1O[C@H](CO)[C@@H](O)[C@H](O)[C@H]1N)OC,CC50,[1],9 µM
same,CC90,[1],16 µM
same,CC50,[3],10 µM
same,CC90,[3],15 µM
same,CC50,[4],9 µM
same,CC90,[4],18 µM
same,CC50,[5],8 µM
same,CC90,[5],13 µM
same,CC50,[6],13.5 µM
same,CC90,[6],28 µM
CCCCCCCCCCCCCCCCOCCCO[C@@H]1O[C@H](CN)[C@@H](O)[C@H](O)[C@H]1N,Activity,[15],>95%
same,Activity,[16],>95%
same,CC50,[1],4 µM
same,CC90,[1],6 µM
same,Activity,[11],100%
same,Activity,[12],100%
same,CC50,[2],4.5 µM
same,CC90,[2],7 µM
same,CC50,[3],6 µM
same,CC90,[3],8.5 µM
same,CC50,[4],6.5 µM
same,CC90,[4],13 µM
same,CC50,[5],8.5 µM
same,CC90,[5],17.5 µM
same,CC50,[6],8 µM
same,CC90,[6],14 µM
same,Activity,[13],100%
same,Activity,[14],100%
CCCCCCCCCCCCCCCCOC[C@@H](N)CO[C@@H]1O[C@H](CO)[C@@H](O)[C@H](O)[C@H]1N,CC50,[1],5.5 µM
same,CC90,[1],7.5 µM
same,Activity,[11],100%
same,Activity,[12],100%
same,CC50,[2],6 µM
same,CC90,[2],9 µM
same,CC50,[3],6 µM
same,CC90,[3],9 µM
same,CC50,[4],8.5 µM
same,CC90,[4],14 µM
same,CC50,[5],15.5 µM
same,CC90,[5],28 µM
same,CC50,[6],9 µM
same,CC90,[6],14 µM
same,Activity,[13],100%
same,Activity,[14],100%
CC[C@@H](C(=O)[C@@H](C)[C@@H](O)[C@H](C)[C@@H]1O[C@@H]([C@@H](CC)C(=O)O)CC[C@@H]1C)[C@H]1O[C@]2(C=C[C@@H](O)[C@]3(CC[C@@](C)([C@H]4CC[C@](O)(CC)[C@H](C)O4)O3)O2)[C@H](C)C[C@@H]1C [SALINOMYCIN],Activity,[17],Active
same,CC50,[2],> 20 µM
same,CC50,[3],> 20 µM
same,CC50,[4],6.5 µM
same,Activity,[18],Active
same,CC50,[5],14 µM
CCCCCCCCCCCCCCCCOC[C@@H](CO[C@H]1O[C@H](CN)[C@@H](O)[C@H](O)[C@H]1N)OC,Activity,[15],>95%
same,Ratio,[19],2
same,Activity,[16],>95%
same,CC50,[1],3.5 µM
same,CC90,[1],4.9 µM
same,Activity,[11],100%
same,Ratio,[20],>4
same,Activity,[12],100%
same,CC50,[2],3 µM
same,CC90,[2],4.5 µM
same,CC50,[3],5.2 µM
same,CC90,[3],7.4 µM
same,CC50,[4],3.5 µM
same,CC90,[4],6.5 µM
same,Ratio,[21],>6
same,CC50,[5],7.5 µM
same,CC90,[5],9.5 µM
same,CC50,[6],3.5 µM
same,CC90,[6],6 µM
same,Activity,[13],100%
same,Ratio,[22],2
same,Activity,[14],100%
CCCCCCCCCCCCCCCCOC[C@H](CO[C@@H]1O[C@H](CO)[C@@H](O)[C@H](O)[C@H]1N)NC(=O)OC,CC50,[1],12.5 µM
same,CC90,[1],15 µM
same,CC50,[2],16 µM
same,CC90,[2],19 µM
same,CC50,[3],14 µM
same,CC90,[3],19 µM
same,CC50,[4],18 µM
same,CC90,[4],29 µM
same,CC50,[5],23 µM
same,CC90,[5],29 µM
same,CC50,[6],20 µM
same,CC90,[6],29 µM
CCCCCCCCCCCCCCCCOC[C@H](CN)O[C@@H]1O[C@H](CO)[C@@H](O)[C@H](O)[C@H]1N,CC50,[1],14 µM
same,CC90,[1],19 µM
same,CC50,[2],12 µM
same,CC90,[2],17.5 µM
same,CC50,[3],17.5 µM
same,CC90,[3],25 µM
same,CC50,[4],15 µM
same,CC90,[4],28 µM
same,CC50,[5],25 µM
same,CC90,[5],> 30 µM
same,CC50,[6],9.5 µM
same,CC90,[6],17 µM
CCCCCCCCCCCCCCCCOC[C@H](CO[C@@H]1O[C@H](CN)[C@@H](O)[C@H](O)[C@H]1N)O[C@@H]1O[C@H](CN)[C@@H](O)[C@H](O)[C@H]1N,CC50,[2],> 30 µM
CCCCCCCCCCCCCCCCOC[C@H](CO[C@@H]1O[C@H](CO)[C@@H](O)[C@H](O)[C@H]1N)NC(=O)CCCCCCCCCCCCCCC,CC50,[2],> 30 µM
